Patent US5081131A, “Omega-((hetero)alkyl)benz(cd)-indol-2-amines” (American Cyanamid Company, priority 1988, dated 1992)
Counter-ions that a name gives are not always drawn. Like-named read-outs stand apart in the source and are kept apart here. Blank lines part the entries; values can stand above or below the compound they belong to.

How the values were obtained:
[1] = biological target: T1, thromboxane synthetase enzyme (Rattus norvegicus, UniProt P49430); experiment: Thromboxane synthetase enzyme inhibition (TXB2 formation in washed platelets, RIA); assay type: cell-based, spontaneously hypertensive rat; settings: SHR platelets, 10 min at 37° C.
T1 construct: endogenous in cells; host or cells: washed platelets from arterial blood of male Okamoto-Aoki spontaneously hypertensive rats (animals from Taconic Farms, Germantown, N.Y.)
T1 sequence (P49430 1-533): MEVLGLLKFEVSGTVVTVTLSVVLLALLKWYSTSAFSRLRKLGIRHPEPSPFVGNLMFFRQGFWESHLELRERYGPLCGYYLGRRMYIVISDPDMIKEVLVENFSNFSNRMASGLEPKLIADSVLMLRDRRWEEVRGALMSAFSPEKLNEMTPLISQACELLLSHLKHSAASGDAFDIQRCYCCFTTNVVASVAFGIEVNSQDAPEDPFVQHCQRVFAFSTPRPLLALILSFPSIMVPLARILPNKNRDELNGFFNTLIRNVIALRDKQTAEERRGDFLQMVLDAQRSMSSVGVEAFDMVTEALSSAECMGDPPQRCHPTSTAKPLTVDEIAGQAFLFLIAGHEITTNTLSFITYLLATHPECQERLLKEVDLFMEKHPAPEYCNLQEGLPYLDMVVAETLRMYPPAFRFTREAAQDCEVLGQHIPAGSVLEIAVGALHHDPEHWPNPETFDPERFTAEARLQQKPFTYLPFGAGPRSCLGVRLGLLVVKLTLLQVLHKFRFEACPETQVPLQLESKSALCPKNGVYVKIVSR
Procedure: The blood was diluted with 3 ml cold saline and centrifuged at room temperature for 15 min at 468×g. The platelet rich plasma (PRP) was separated. The platelets were isolated by certrifuging the PRP for 10 minutes at 1060×g and washed in 4 ml cold oxygenated Krebs phosphate buffer, pH 7.4. The chilled platelets recovered from centrifuging at 800×g for 10 minutes were resuspended in oxygenated Krebs phosphate buffer and diluted to contain 4.0-6.0×10^4 platelets/micro-liters. The inhibition of TX formation was studied by determining the concentration of thromboxane B2 (TXB2), the stable hydrolysis product of TXA2. Assay samples prepared on ice, contained 200 micro-liters platelet suspension, 50 micro-liters saline, and 50 micro-liters […] (saline) or drug under study. The test drug (0.003 mole) was dissolved in 5 ml of saline. […] The assay samples were incubated for 10 minutes at 37° C. in a metabolic shaker at about 60 rpm. The reaction was terminated by immersing the tubes in an ice bath and adding 50 micro-liters of 0.5M citric acid. The samples were centrifuged for 10 minutes at 2000 rpm at 4° C., and the supernatants were decanted.

[2] = test system: spontaneously hypertensive rats; experiment: Hypotensive activity in spontaneously hypertensive rats (MABP); assay type: in vivo, rat (Okamoto strain); settings: SHR, gavage, two doses of 10 mg/kg or less 24 h apart, MABP at 28 h; average baseline 160±1.5 mm Hg
Procedure: The novel compounds of the present invention are active hypotensive agents and were tested for hypotensive activity by the method of P. S. Chan and D. Poorvin, Clinical and Experimental Hypertension, 1 (6), 817-830 (1979). Male, 16 week old, spontaneously hypertensive rats of the Okamoto strain, from Taconic Farms, Germantown, N.Y., having an average mean arterial blood pressure of 160±1.5 mm of mercury, were used in the test. One to 4 rats were used per test compound. A rat was dosed by gavage with a test compound, suspended in 2% pre-boiled starch at a concentration of 50 mg/ml, at a doses of 10 mg/kg of body weight or less, with 0.9% sodium chloride loading at a dose of 25 ml/kg of body weight. A second identical dose of the test compound, without sodium chloride loading was given 24 hours later. At 28 hours after initial dose the mean arterial blood pressure (MABP) was measured. The procedure was repeated in a second and third rat when necessary.

[3] = 1×10^-4 Molar, read-out: % Inhibition (Thromboxane Synthetase Enzyme Inhibition)

SMILES: Cn1cccc1CCNC1=Nc2cccc3cccc1c23 [N-(2-(1-Methyl-1H-pyrrol-2-yl)ethyl)benz(cd)indol-2-amine, fumarate]
inhibition at 100 µM [1, 3]: 90%

SMILES: O=C(O)/C=C/C(=O)O.c1ccc(CCNC2=Nc3cccc4cccc2c34)nc1 [N-(2-(2-Pyridinyl)ethyl)benz(cd)indol-2-amine, fumarate]
inhibition at 100 µM [1, 3]: 94%
Avg. MABP in mm Hg (No. of Rats) [2]: 137 mm Hg

SMILES: N#CCCN(Cc1ccccn1)C1=Nc2cccc3cccc1c23 [N-(2-Cyanoethyl)-N-(2-pyridinylmethyl)benz(cd)indol-2-amine, dihydrochloride]
inhibition at 100 µM [1, 3]: 97%

SMILES: c1ccc(CNC2=Nc3cccc4cccc2c34)nc1 [N-(2-Pyridinylmethyl)benz(cd)indol-2-amine, fumarate]
inhibition at 100 µM [1, 3]: 95%

SMILES: c1ccc(-c2nccn2CCCNC2=Nc3cccc4cccc2c34)cc1 [N-(3-(2-Phenyl-1H-imidazol-1-yl)propyl)benz(cd)indol-2-amine, hydriodide]
inhibition at 100 µM [1, 3]: 100%

SMILES: CC(CCNC1=Nc2cccc3cccc1c23)c1ccncc1 (centres unmarked) [N-(3-(4-pyridinyl)butyl)benz(cd)indol-2-amine]
inhibition at 100 µM [1, 3]: 95%

SMILES: c1cncc(CNC2=Nc3cccc4cccc2c34)c1 [N-(3-Pyridinylmethyl)benz(cd)indol-2-amine, fumarate]
inhibition at 100 µM [1, 3]: 68%

SMILES: c1cc2c3c(cccc3c1)C(NCCCCn1ccnc1)=N2 [N-(4-(1H-imidazol-1-yl)butyl)benz(cd)indol-2-amine monobutanedioic acid salt]
inhibition at 100 µM ([1]; read-out: % Inhibition (Thromboxane Synthetase Enzyme Inhibition), 1×10^-4 Molar): 93%

SMILES: c1cc2c3c(cccc3c1)C(NCCCCn1ccnc1)=N2 [N-(4-(1H-imidazol-1-yl)butyl)benz(cd)indol-2-amine sesquibut] [N-(4-(1H-imidazol-1-yl)butyl)benz(cd)indol-2-amine sesquibutanedioic acid salt]
% Inhibition (Thromboxane Synthetase Enzyme Inhibition) ([1]; 1×10^-4 Molar): 98%

SMILES: c1cc2c3c(cccc3c1)C(NCCCCn1ccnc1)=N2 [N-(4-(1H-imidazol-1-yl)butyl)benz(cd)indol-2-amine, hydriodi] [N-(4-(1H-imidazol-1-yl)butyl)benz(cd)indol-2-amine, hydriodide]
% Inhibition (Thromboxane Synthetase Enzyme Inhibition) ([1]; 1×10^-4 Molar): 100%

SMILES: CC(CCCNC1=Nc2cccc3cccc1c23)n1ccnc1.O=C(O)/C=C/C(=O)O.O=C(O)/C=C/C(=O)O (centres unmarked) [N-(4-(1H-imidazol-1-yl)pentyl)benz(cd)indol-2-amine, bis-fumarate]
% Inhibition (Thromboxane Synthetase Enzyme Inhibition) ([1]; 1×10^-4 Molar): 99%

SMILES: c1ccc(-n2ncc(CNC3=Nc4cccc5cccc3c45)n2)cc1 [N-((2-Phenyl-2H-1,2,3-triazol-2-yl)methyl)benz(cd)indol-2-amine fumarate]
inhibition at 100 µM [1, 3]: 73%

SMILES: O=C(c1ccccc1)N(CCCn1cncn1)C1=Nc2cccc3cccc1c23 [N-Benz(cd)indol-2-yl-N-(3-(1H-1,2,4-triazol-1-yl)propyl)benzamide]
inhibition at 100 µM [1, 3]: 77%

SMILES: CCC(=O)N(CCC(C)n1ccnc1)C1=Nc2cccc3cccc1c23 (centres unmarked) [N-Benz(cd)indol-2-yl-N-(3-(1H-imidazol-1-yl)butyl)propionamide]
inhibition at 100 µM [1, 3]: 95%

SMILES: CN(CCc1ccccn1)C1=Nc2cccc3cccc1c23 [N-Methyl-N-(2-(2-pyridinyl)ethyl)benz(cd)indol-2-amine fumarate]
inhibition at 100 µM [1, 3]: 89%

Now from value to compound, other results behind:

inhibition at 100 µM [1, 3]: 97%
SMILES: Clc1cc(Cl)c2cccc3c2c1N=C3NCCCn1ccnc1 [6,8-Dichloro-N-(3-(1H-imidazol-1-yl)propyl)benz(cd)indol-2-amine]
Avg. MABP in mm Hg (No. of Rats) [2]: 102 mm Hg

inhibition at 100 µM [1, 3]: 99%
SMILES: Clc1cc(Cl)c2cccc3c2c1N=C3NCCCCn1ccnc1 [6,8-Dichloro-N-(4-(1H-imidazol-1-yl)butyl)benz(cd)indol-2-amine]
Avg. MABP in mm Hg (No. of Rats) [2]: 115 mm Hg

inhibition at 100 µM [1, 3]: 93%
SMILES: Clc1cc(Cl)c2cccc3c2c1N=C3NCCCCc1cccnc1 [6,8-Dichloro-N-(4-(3-pyridinyl)butyl)benz(cd)indol-2-amine]
Avg. MABP in mm Hg (No. of Rats) [2]: 102 mm Hg

inhibition at 100 µM [1, 3]: 96%
SMILES: Clc1cc(Cl)c2cccc3c2c1N=C3NCCCCCCCCCCn1ccnc1 [6,8-Dichloro-N-(10-(1H-imidazol-1-yl)decyl)benz(cd)indol-2-amine]
Avg. MABP in mm Hg (No. of Rats) [2]: 121 mm Hg

inhibition at 100 µM [1, 3]: 85%
SMILES: Brc1ccc2c3c(cccc13)C(NCCCn1ccnc1)=N2 [6-Bromo-N-(3-(1H-imidazol-l-yl)propyl)benz(cd)indol-2-amine, dihydrochloride]
Avg. MABP in mm Hg (No. of Rats) [2]: 117 mm Hg

inhibition at 100 µM [1, 3]: 98%
SMILES: Brc1ccc2c3c(cccc13)C(NCCCCn1ccnc1)=N2 [6-Bromo-N-(4-(1H-imidazol-1-yl)butyl)benz(cd)indol-2-amine]
Avg. MABP in mm Hg (No. of Rats) [2]: 120 mm Hg

inhibition at 100 µM [1, 3]: 92%
SMILES: Brc1ccc2c3c(cccc13)C(NCCCCc1cccnc1)=N2 [6-Bromo-N-(4-(3-pyridinyl)butyl)benz(cd)indol-2-amine sesqui-fumarate]
Avg. MABP in mm Hg (No. of Rats) [2]: 110 mm Hg

% Inhibition (Thromboxane Synthetase Enzyme Inhibition) ([1]; 1×10^-4 Molar): 89%
SMILES: Brc1ccc2c3c(cccc13)C(NCCCCc1cccnc1)=N2.Cl.Cl [6-Bromo-N-(4-(3-pyridinyl)butyl)benz(cd)indol-2-amine, dihydrochloride]
Avg. MABP in mm Hg (No. of Rats) [2]: 99 mm Hg

inhibition at 100 µM [1, 3]: 94%
SMILES: Brc1ccc2c3c(cccc13)C(NCCCCCCCCCCn1ccnc1)=N2 [6-Bromo-N-(10-(1H-imidazol-1-yl)decyl)benz(cd)indol-2-amine]

inhibition at 100 µM [1, 3]: 90%
SMILES: Brc1ccc2c3c(cccc13)C(NCCCCCCCCCCCCn1ccnc1)=N2 [6-Bromo-N-(12-(1H-imidazol-1-yl)dodecyl)benz(cd)indol-2-amine]
Avg. MABP in mm Hg (No. of Rats) [2]: 128 mm Hg

inhibition at 100 µM [1, 3]: 100%
SMILES: Clc1ccc2c3c(cccc13)C(NCCCCCn1ccnc1)=N2 [6-Chloro-N-(5-(1H-imidazol-1-yl)pentyl)benz(cd)indol-2-amine]

inhibition at 100 µM [1, 3]: 97%
SMILES: C(=C/Cn1ccnc1)/CNC1=Nc2cccc3cccc1c23.Cl.Cl [(Z)-N-(4-(1H-imidazol-1-yl)-2-butenyl)benz(cd)indol-2-amine, dihydrochloride]
Avg. MABP in mm Hg (No. of Rats) [2]: 77 mm Hg

% Inhibition (Thromboxane Synthetase Enzyme Inhibition) ([1]; 1×10^-4 Molar): 100%
SMILES: C(=C/Cn1ccnc1)/CNC1=Nc2cccc3cccc1c23 [(Z)-N-(4-(1H-imidazol-1-yl)-2-butenyl)benz(cd)indol-2-amine, hydriodide]
Avg. MABP in mm Hg (No. of Rats) [2]: 106 mm Hg

inhibition at 100 µM [1, 3]: 35%
SMILES: Clc1ccc(C(Cn2ccnc2)NC2=Nc3cccc4cccc2c34)cc1 (centres unmarked) [N-(1-(4-chlorophenyl)-2-(1H-imidazol-1-yl)ethyl)benz(cd)indol-2-amine, fumarate]

inhibition at 100 µM [1, 3]: 71%
SMILES: c1cc2c3c(cccc3c1)C(NCCn1ccnc1)=N2 [N-(2-(1H-imidazol-1-yl)ethyl)benz(cd)indol-2-amine]

inhibition at 100 µM [1, 3]: 98%
SMILES: c1cc2c3c(cccc3c1)C(NCCOCCn1ccnc1)=N2 [N-(2-(2-(1H-imidazol-1-yl)ethoxy)ethyl)benz(cd)indol-2-amine bis-fumarate]

inhibition at 100 µM [1, 3]: 88%
SMILES: OC(CNC1=Nc2cccc3cccc1c23)Cn1ccnc1 (centres unmarked) [N-(3-(1H-imidazol-1-yl)-2-hydroxypropyl)benz(cd)indol-2-amine]

inhibition at 100 µM [1, 3]: 92%
SMILES: c1cc2c3c(cccc3c1)C(NCCCn1ccnc1)=N2 [N-(3-(1H-imidazol-1-yl)propyl)benz(cd)indol-2-amine, fumarate]

inhibition at 100 µM [1, 3]: 82%
SMILES: Cc1nccn1CCCNC1=Nc2cccc3cccc1c23 [N-(3-(2-Methyl-1H-imidazol-1-yl)propyl)benz(cd)indol-2-amine, monohydriodide]

inhibition at 100 µM [1, 3]: 96%
SMILES: O=C(c1ccc(Cl)cc1)N(CCCCn1ccnc1)C1=Nc2cccc3cccc1c23 [N-Benz(cd)indol-2-yl-4-chloro-N-(4-(1-imidazol-1-yl)butylbenzamide]
